In PubChem BioAssay AID328 (DTP/NCI, 2004) one finds T/C data, which are given here for 19 compounds.

Values joined by “and” are separate entries in the source; they are usually repeats but may differ in a detail not shown here. Equal values may be shown once. Toxic doses and inconclusive results are not listed.

The subject of this experiment is BDF1 mice, P388 leukemia ip, median survival T/C. Briefly: NCI In Vivo Anticancer Drug Screen. Data for tumor model P388 Leukemia (intraperitoneal) in B6D2F1 (BDF1) mice. Particulars: endpoint: median survival time, higher = longer survival. The procedure, abridged: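 Steps: implant the tumour, treat one group with compound and another with vehicle, record survival, then divide treated by control.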

Where [1] appears, read: dose: 100.0 mg/kg/injection, schedule: Q01DX001 (ip), vehicle: saline with Tween-80.
Setting [2] is: dose: 200.0 mg/kg/injection, schedule: Q01DX001 (ip), vehicle: saline with Tween-80.
Where [3] appears, read: dose: 400.0 mg/kg/injection, schedule: Q01DX001 (ip), vehicle: saline with Tween-80.
The mark [4] stands for this setting: dose: 100.0 mg/kg/injection, schedule: Q04DX003 (ip), vehicle: Klucel (hydroxypropylcellulose) (HPC).
Where [5] appears, read: dose: 200.0 mg/kg/injection, schedule: Q04DX003 (ip), vehicle: Klucel (hydroxypropylcellulose) (HPC).
[6] abbreviates: dose: 100.0 mg/kg/injection, schedule: Q01DX009 (ip), vehicle: Klucel (hydroxypropylcellulose) (HPC).
[7] abbreviates: dose: 400.0 mg/kg/injection, schedule: Q01DX009 (ip), vehicle: Klucel (hydroxypropylcellulose) (HPC).

Turning to `CC(C)(N)CCC(C)(C)NCCC#N`, the T/C by setting is: (dose: 50.0 mg/kg/injection, schedule: Q01DX009 (ip), vehicle: water) 103 % of control; (dose: 100.0 mg/kg/injection, schedule: Q01DX009 (ip), vehicle: water) 99 % of control; (dose: 100.0 mg/kg/injection, schedule: Q04DX003 (ip), vehicle: water) 110 % of control; (dose: 200.0 mg/kg/injection, schedule: Q01DX009 (ip), vehicle: water) 122 % of control; (dose: 200.0 mg/kg/injection, schedule: Q04DX003 (ip), vehicle: water) 103 % of control; (dose: 400.0 mg/kg/injection, schedule: Q01DX009 (ip), vehicle: water) 114 % of control. Besides, the T/C (dose: 400.0 mg/kg/injection, schedule: Q04DX003 (ip), vehicle: water) was 103 % of control.
Turning to `COC1C=COC2(C)Oc3c(C)c(O)c4c(c3C2=O)/C(=N/C2CCC(O)OC2C)C=C(NC(=O)/C(C)=C\C(=O)C2CC2C(O)C(C)C(O)C(C)C(OC(C)=O)C1C)C4=O` (configuration not stated), the T/C reads like this: (dose: 4.6 mg/kg/injection, schedule: Q01DX009 (ip), vehicle: saline with Tween-80) 101 % of control; (dose: 9.25 mg/kg/injection, schedule: Q01DX009 (ip), vehicle: saline with Tween-80) 105 % of control; (dose: 18.5 mg/kg/injection, schedule: Q01DX009 (ip), vehicle: saline with Tween-80) 89 % of control; (dose: 37.0 mg/kg/injection, schedule: Q01DX009 (ip), vehicle: saline with Tween-80) 101 % of control.
Take `COC(=O)C(N)CN` (configuration not stated): the T/C (dose: 175.0 mg/kg/injection, schedule: Q01DX009 (ip), vehicle: saline with Tween-80) is 89 % of control.
Regarding `CN(C)C(=S)N(C)C`, the T/C (dose: 100.0 mg/kg/injection, schedule: Q04DX003 (ip), vehicle: saline) was 100 % of control; the T/C (dose: 200.0 mg/kg/injection, schedule: Q04DX003 (ip), vehicle: saline) is 100 % of control; the T/C (dose: 400.0 mg/kg/injection, schedule: Q04DX003 (ip), vehicle: saline) was 118 % of control.
`CC(=O)Oc1c(Cl)c(Cl)c(Cl)c(Cl)c1Cl`: the T/C reads like this: under setting [1], 115 % of control; under setting [2], 95 % of control; under setting [3], 100 % of control.
For the compound `O=[N+]([O-])c1ccccc1SNc1ccc(NSc2ccccc2[N+](=O)[O-])cc1`, the T/C by setting is: (dose: 3.13 mg/kg/injection, schedule: Q01DX001 (ip), vehicle: saline with Tween-80) 104 % of control; (dose: 6.25 mg/kg/injection, schedule: Q01DX001 (ip), vehicle: saline with Tween-80) 109 % of control; (dose: 12.5 mg/kg/injection, schedule: Q01DX001 (ip), vehicle: saline with Tween-80) 95 % of control.
Consider `COc1cc(-c2cc(=O)c3c(OC)c(OC)c(OC)c(OC)c3o2)cc2c1OCO2`, for which the T/C is 97 % of control (dose: 100.0 mg/kg/injection, schedule: Q04DX002 (ip), vehicle: Klucel (hydroxypropylcellulose) (HPC)); 103 % of control (dose: 200.0 mg/kg/injection, schedule: Q04DX002 (ip), vehicle: Klucel (hydroxypropylcellulose) (HPC)); 97 % of control (dose: 400.0 mg/kg/injection, schedule: Q04DX002 (ip), vehicle: Klucel (hydroxypropylcellulose) (HPC)).
For `CCCCOCN(COCCCC)c1cccc([N+](=O)[O-])c1`, the T/C is, setting by setting: (dose: 50.0 mg/kg/injection, schedule: Q01DX009 (ip), vehicle: saline with Tween-80) 102 % of control; (dose: 100.0 mg/kg/injection, schedule: Q01DX009 (ip), vehicle: saline with Tween-80) 100 % of control; (dose: 200.0 mg/kg/injection, schedule: Q01DX009 (ip), vehicle: saline with Tween-80) 111 % of control.
Turning to `CCCN(CCC)c1ccc(C=O)cc1`, the T/C (dose: 50.0 mg/kg/injection, schedule: Q04DX003 (ip), vehicle: Klucel (hydroxypropylcellulose) (HPC)) was 100 % of control; the T/C under setting [4] was 105 % of control; the T/C under setting [5] was 94 % of control.
`CCCCn1c2nc(=O)[nH]c(=O)c-2[n+]([O-])c2ccccc21`: the T/C under setting [1] is 108 % of control.
As for `Cc1cccc(NC(=O)CCc2ccc(N3C(N)=NC(N)=NC3(C)C)cc2)c1`, the T/C reads like this: (dose: 58.0 mg/kg/injection, schedule: Q01DX009 (ip), vehicle: saline with Tween-80) 111 % of control; (dose: 88.0 mg/kg/injection, schedule: Q01DX009 (ip), vehicle: saline with Tween-80) 119 % of control; (dose: 132.0 mg/kg/injection, schedule: Q01DX009 (ip), vehicle: saline with Tween-80) 119 % of control and 122 % of control.
Regarding `COc1cc(C=Nc2cccc(C(F)(F)F)c2)ccc1O`, the T/C under setting [4] is 95 % of control and the T/C under setting [5] is 100 % of control.
In the case of `O=C(Nc1ccc2c(c1)OCO2)O/N=C\c1ccccn1`, the T/C reads like this: (dose: 100.0 mg/kg/injection, schedule: Q04DX003 (ip), vehicle: saline with Tween-80) 118 % of control; (dose: 200.0 mg/kg/injection, schedule: Q04DX003 (ip), vehicle: saline with Tween-80) 95 % of control; (dose: 400.0 mg/kg/injection, schedule: Q04DX003 (ip), vehicle: saline with Tween-80) 100 % of control.
Regarding `O=[N+]([O-])c1ccc(F)c(CNc2ncnc3c2ncn3C2CCCCO2)c1` (configuration not stated), the T/C reads like this: (dose: 100.0 mg/kg/injection, schedule: Q01DX001 (ip), vehicle: Klucel (hydroxypropylcellulose) (HPC)) 95 % of control; (dose: 200.0 mg/kg/injection, schedule: Q01DX001 (ip), vehicle: Klucel (hydroxypropylcellulose) (HPC)) 110 % of control; (dose: 400.0 mg/kg/injection, schedule: Q01DX001 (ip), vehicle: Klucel (hydroxypropylcellulose) (HPC)) 105 % of control.
Take `CCCCCCCCCCNc1ccc(NCCCCCCCCCC)cc1`: the T/C is, setting by setting: under setting [6], 100 % of control; under setting [4], 120 % of control; under setting [7], 100 % of control.
Regarding `CCC1NC(C)(C)CC1=C(C)C` (configuration not stated), the T/C runs as follows: (dose: 1.56 mg/kg/injection, schedule: Q01DX009 (ip), vehicle: saline) 104 % of control; (dose: 3.13 mg/kg/injection, schedule: Q01DX009 (ip), vehicle: saline) 104 % of control; (dose: 6.25 mg/kg/injection, schedule: Q01DX009 (ip), vehicle: saline) 104 % of control.
For `COc1cc2cc3cc4cc(OC)c(OC)cc4c(C)[n+]3cc2cc1OC` (tested in a mixture with another compound), the T/C was 163 % of control (dose: 10.0 mg/kg/injection, schedule: Q01DX009 (ip), vehicle: Klucel (hydroxypropylcellulose) (HPC)); 155 % of control (dose: 20.0 mg/kg/injection, schedule: Q01DX009 (ip), vehicle: Klucel (hydroxypropylcellulose) (HPC)); 180 % of control (dose: 20.0 mg/kg/injection, schedule: Q01DX009 (ip), vehicle: saline); 163 % of control (dose: 40.0 mg/kg/injection, schedule: Q01DX009 (ip), vehicle: Klucel (hydroxypropylcellulose) (HPC)); 150 % of control (dose: 40.0 mg/kg/injection, schedule: Q01DX009 (ip), vehicle: saline); 154 % of control and 166 % of control (dose: 40.0 mg/kg/injection, schedule: Q04DX003 (ip), vehicle: saline). Besides, the T/C runs as follows: (dose: 80.0 mg/kg/injection, schedule: Q01DX009 (ip), vehicle: Klucel (hydroxypropylcellulose) (HPC)) 163 % of control; (dose: 80.0 mg/kg/injection, schedule: Q01DX009 (ip), vehicle: saline) 180 % of control; (dose: 80.0 mg/kg/injection, schedule: Q04DX003 (ip), vehicle: saline) 157 % of control; (dose: 120.0 mg/kg/injection, schedule: Q01DX009 (ip), vehicle: saline) 150 % of control; (dose: 160.0 mg/kg/injection, schedule: Q01DX009 (ip), vehicle: Klucel (hydroxypropylcellulose) (HPC)) 154 % of control; (dose: 160.0 mg/kg/injection, schedule: Q01DX009 (ip), vehicle: saline) 200 % of control. The T/C (dose: 160.0 mg/kg/injection, schedule: Q04DX003 (ip), vehicle: saline) is 154 % of control; the T/C (dose: 168.0 mg/kg/injection, schedule: Q04DX003 (ip), vehicle: saline) was 99 % of control; the T/C (dose: 250.0 mg/kg/injection, schedule: Q04DX003 (ip), vehicle: saline) is 92 % of control.
Regarding `Cc1nnc2c(=S)[nH]ccn12`, the T/C is, setting by setting: under setting [1], 113 % of control; under setting [2], 106 % of control; under setting [3], 100 % of control.
`Oc1ccc2ccccc2c1N=Nc1ccccc1`: the T/C runs as follows: under setting [6], 87 % of control; under setting [4], 109 % of control; (dose: 200.0 mg/kg/injection, schedule: Q01DX009 (ip), vehicle: Klucel (hydroxypropylcellulose) (HPC)) 104 % of control; under setting [5], 104 % of control; under setting [7], 91 % of control; (dose: 400.0 mg/kg/injection, schedule: Q04DX003 (ip), vehicle: Klucel (hydroxypropylcellulose) (HPC)) 104 % of control.
